Entries after “also recorded” stand apart in the source; their conditions may differ.
Legend:
[1] = RalA inhibitor treatment of mice: body weight, tissue weight, blood glucose; assay type: in vivo
Source text: To test the effects of RalA inhibition in reducing body weight, tissue weight and blood glucose level in mice, mice were weighed before injecting with either RalA inhibitor, BQU57, or DMSO (vehicle). Post injection, mice were weighed every 2 days.

[2] = system: primary and immortalized adipocytes; assay: TMRM live-cell imaging of mitochondrial membrane potential in adipocytes; assay type: cell-based, mice; details: adipocytes treated with 1 μM CL-316,243 for indicated times
Source text: FIGS. 10A-10J. […] FIG. 10A: Calculation of individual OCR in differentiated primary adipocytes (n=8 biological samples). P=0.0008, P=0.0175, P=0.0042. FIG. 10B: Representative immunoblot of RalA and β-Tubulin in immortalized preadipocytes and differentiated adipocytes. (n=3 biological samples). FIG. 10C: Quantification of mean TMRM fluorescence intensity in primary adipocytes and immortalized adipocytes (n=3 independent cells). P<0.0001, P<0.0001. FIG. 10D: Time course TMRM intensity quantification in primary and immortalized adipocytes (n=4 biological samples). Adipocytes were treated with 1 μM CL-316,243 (CL) for indicated times. P=0.0015, P=0.0044 (left panel). P<0.0001, P=0.0154, P=0.0095 (right panel). FIGS. 10E and 10F: Quantification of NEFA (FIG. 10E) and free glycerol (FIG. 10F) released into medium from immortalized adipocytes (n=3 biological samples). Cells were treated with 1 μM CL, 100 nM insulin, or in combination prior to medium collection. P=0.0301, P=0.0051 (FIG. 10F). FIGS. 10G and 10H: Plasma levels of NEFA (FIG. 10G) and free glycerol (FIG. 10H) in CD-fed Rala^f/f and Rala^AKO mice (n=6). P=0.0027, P=0.0173 (FIG. 10H). Mice were i.p. injected with CL or vehicle prior to blood sampling. FIGS. 10I and 10J: Plasma levels of NEFA (FIG. 10I) and free glycerol (FIG. 10J) in CD-fed Rala^f/f (n=4) and Rala^AKO (n=5) mice. […]

immortalized adipocytes = assay: In vitro lipolysis (FFA and glycerol release) in immortalized adipocytes; assay type: cell-based, mice
Method: Primary preadipocytes from Rala^f/f mice were immortalized by retroviral transduction of pBabe-zeo-LT-ST (SV40) and selection by Zeocin^75. Single-cell clones were selected and tested for differentiation capacity. […] To generate Rala KO cells, immortalized Rala^f/f (WT) preadipocytes were transduced with lentiviral Cre with 8 μg/mL Polybrene for 12 hours, then cultured in DMEM/F12-FBS medium. Cre recombinase efficiency was tested in preadipocytes and adipocytes. Once 95-100% confluency was reached (day 0), differentiation was induced as described above. On the day of the experiment, cells were starved in DMEM/F12 medium for 3 hours before treatments.
Fully differentiated primary adipocytes in a 24-well plate were serum-starved in lipolysis medium (2% BSA-phenol-red-free DMEM) for 3 hours. For insulin treatment, 100 nM insulin was added to cells for 30 minutes starting at 2.5 hours of starvation. After starvation, the medium was replaced with 0.5 mL fresh lipolysis medium with vehicle, 1 μM CL-316,243 (CL), 100 nM insulin or in combination. The medium was collected 1 hour after incubation at 37° C. Released FFAs and free glycerol levels were measured using 100 μL medium with a NEFA kit (WAKO) and Free Glycerol Reagent (Sigma) according to the manufacturer's protocol.

[3] = system: primary differentiated adipocytes; assay: Seahorse oxygen consumption rate in differentiated primary adipocytes; assay type: cell-based, mice; details: addition of etomoxir
Method: The cellular oxygen consumption rate (OCR) was measured using an eXF96 Extracellular Flux Analyzer and analyzed by Agilent Seahorse Wave Software (Seahorse Bioscience). Before performing the assay, 2,500 primary preadipocytes were seeded and differentiated in XF96 microplates. Once fully differentiated, the adipocyte culture medium was changed to assay medium containing 25 mM glucose, 1 mM pyruvate and 2 mM L-glutamine, and 0.5 mM carnitine without phenol red or sodium bicarbonate for 3 hours. Before taking measurements, cells were incubated in a CO2-free incubator for 15 minutes. Basal rates of respiration were measured in assay medium and followed with sequential injections of oligomycin (2 μM), FCCP (0.5 μM) and rotenone with antimycin A (each 0.5 μM). Oxygen consumption values were normalized to total protein content.

[4] = In vivo insulin-suppressed lipolysis; details: single injection of insulin, fasted CD-fed control and Rala AKO mice
Method: CD-fed mice were used for in vivo lipolysis. For CL-induced lipolysis, ad libitum-fed mice were i.p. injected with PBS or CL (1 mg/kg) for 60 minutes. Circulating FFAs and free glycerol levels were measured using 2 μL plasma with a NEFA kit (WAKO) and Free Glycerol Reagent (Sigma), respectively. For insulin-suppressed lipolysis, overnight-fasted mice were i.p. injected with insulin (0.5 U/kg) for 60 minutes. Circulating FFAs and free glycerol levels were measured at the indicated conditions.

Compound: Cc1nn(C)c2c1C(c1ccc(C(F)(F)F)cc1)C(C#N)=C(N)O2 (centres unmarked) [BQU57]
- body weight ([1]; mice injected with BQU57 vs DMSO vehicle, weighed every 2 days, 23 days of treatment): significant weight loss; also recorded: reduced body weight
- blood glucose level ([1]; mice, BQU57 vs vehicle group): significant reduction in the blood glucose level
- subcutaneous WAT (sWAT) weight ([1]; mice, post treatment with BQU57): marked reduction of subcutaneous WAT (sWAT) weight

Compound: C[C@H](Cc1ccc2c(c1)OC(C(=O)[O-])(C(=O)[O-])O2)NC[C@H](O)c1cccc(Cl)c1.[Na+].[Na+] [CL-316,243]
- TMRM signal (mitochondrial membrane potential) [2]: TMRM signal declined quickly
- FFA and glycerol release (immortalized adipocytes; 1 μM CL, KO and WT immortalized adipocytes): robustly stimulated FFA and glycerol release

Compound: CCOC(=O)[C@@]1(CCCCCCOc2ccc(Cl)cc2)CO1 [etomoxir]
- difference in maximal respiration (OCR) between KO and control adipocytes [3]: blunted

Compound: insulin: insulin used at 100 nM in cells or injected i.p. (human insulin, Sigma)
- plasma FFA levels [4]: reduced FFA levels
- suppression of CL-induced FFA release (immortalized adipocytes; 100 nM insulin with 1 μM CL, both WT and KO cells): approximately 50%

From patent US20250319162A1, “METHODS AND MATERIALS FOR TREATING OBESITY” (Regents of the University of California, priority 2024, published 2025)
